Earlier results as cited in US20260034249A1, “COMPOSITIONS AND METHODS FOR MODIFYING FERTILITY” (The Broad Institute, Inc., priority 2023, published 2026).

What was measured:
MT2 over MT1 receptor = target: T1, MT2 over MT1 receptor (Homo sapiens, UniProt P49286); details: selectivity MT2 vs MT1
T1 sequence (P49286 1-362): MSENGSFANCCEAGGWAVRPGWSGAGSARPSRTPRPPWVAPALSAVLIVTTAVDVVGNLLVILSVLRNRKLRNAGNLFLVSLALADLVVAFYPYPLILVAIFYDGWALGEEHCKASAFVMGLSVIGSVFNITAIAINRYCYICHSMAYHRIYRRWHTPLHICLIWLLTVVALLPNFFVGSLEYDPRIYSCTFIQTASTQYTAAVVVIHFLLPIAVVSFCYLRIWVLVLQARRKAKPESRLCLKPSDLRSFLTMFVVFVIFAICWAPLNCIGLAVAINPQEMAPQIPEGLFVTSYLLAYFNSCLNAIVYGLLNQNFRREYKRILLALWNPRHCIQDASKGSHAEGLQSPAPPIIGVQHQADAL

Row | SMILES | Vim expression (Vim) | also measured
1 | C/C1=C/C(=O)O[C@@H]2C[C@@H](CC[C@H](C)/C=C\C=C\CC1)O[C@@](O)([C@@H]1CSC(=O)N1)C2 [Latrunculin A] |  | binding of TMSB4X to actin (TMSB4X): Sponge toxin that prevents
2 | C[C@@H]1CC[C@@]2(OC1)O[C@H]1C[C@H]3[C@@H]4CC=C5C[C@@H](O[C@@H]6O[C@H](CO)[C@@H](O[C@@H]7O[C@@H](C)[C@H](O)[C@@H](O)[C@H]7O)[C@H](O)[C@H]6O[C@@H]6O[C@@H](C)[C@H](O)[C@@H](O)[C@H]6O)CC[C@]5(C)[C@H]4CC[C@]3(C)[C@H]1[C@@H]2C [dioscin] | Decreases Vim expression | 
3 | COc1cc(C2Oc3cc([C@H]4Oc5cc(O)cc(O)c5C(=O)[C@@H]4O)ccc3OC2CO)ccc1O (some centres unmarked) [Silibin] | Decreases Vim expression | 
4 | CC(=O)NCCc1c(Cc2ccccc2)[nH]c2ccccc12 [Luzindole] |  | affinity for MT2 over MT1 receptor (MT2 over MT1 receptor): 25-fold affinity for MT2 over
5 | Oc1ccc(C=Cc2cc(O)cc(O)c2)cc1 [resveratrol] | Decreases Vim expression | 
